The test system of one assay is M2 cells. The assay can be described thus: 45Ca incorporation assay measuring mineralization in M2 cells. It is filed as cell-based. An excerpt:
One aspect of the invention is an oxysterol (e.g. an isolated oxysterol) of the invention as represented by Formula I, above. For example, the compounds designated as Oxy 7, Oxy 9, Oxy11, Oxy12, Oxy13, Oxy 14, and Oxy 15 can stimulate at least a measurable amount of a hedgehog-mediated pathway and/or osteomorphogenesis or osteoproliferation (or a marker thereof), and/or can inhibit at least a measurable amount of adipocyte morphogenesis or adipocyte proliferation (or a marker thereof). Oxy 3 and Oxy 4 can act as enhancers of activity in combination with other oxysterols.

The subject of assay [1] is M2-10B4 (M2) murine pluripotent bone MSC line. The assay can be described thus: Tro-induced adipocyte formation in M2 cells, Oil red O staining. The note with it: for inhibition of Tro-induced adipocyte formation: M2 cells, oxysterol 5 μM. It is filed as cell-based, mouse. How it is done:
(§1) M2 mouse MSCs were purchased from American Type Culture Collection (ATCC, Rockville, Md., USA). […] Cell culture was performed in 24- and 6-well plates for adipogenic differentiation and gene expression studies, respectively, and treatment with test agents was done in growth medium.
Oil red O staining for detection of adipocytes was performed as previously described. […] The number of adipocytes was quantitated by counting Oil red O-positive cells in five separate fields per well, in three wells per experimental condition. The results are reported as the mean of triplicate determination ±SD.
(§2) Adipocyte formation was examined by Oil red O staining. […] PPARγ expression was assessed by RT-qPCR after treating M2 cells with Tro in the presence or absence of 20S. […] M2 cells at confluence were treated with control vehicle, 10 μM Tro, or 5 μM 20S, alone or in combination for 24 hours (FIG. 2A), 48 hours (FIG. 2B), and 96 hours (FIG. 2C). PPARγ mRNA expression was measured by quantitative real-time PCR.
(§3) After 10 days, adipocyte formation was measured by Oil red O staining. The number of adipocytes was determined by counting Oil red O-positive cells in five separate fields per well, in three wells per experimental condition. […] After 48 h, PPARγ mRNA expression was measured by quantitative real-time PCR. […] Luciferase activity was measured after 24 h and normalized for transfection efficiency using the Renilla luciferase activity.
Synthetic oxysterol compounds were studied for inhibition of adipogenesis and PPAR expression. […] After 10 days of treatment, cells were stained with Oil-red-O to detect adipocytes, and the number of positively stained cells was determined using light microscopy. Data from a representative experiment are reported as the mean of triplicate determination (average of five fields per well, 3 wells per experimental condition) ±SD.

The test system of a further assay is PPARγ. Description: PPARγ mRNA expression in M2 cells by RT-qPCR. Type of assay: cell-based, mouse. The settings on record: for reversal of the inhibitory effect of 20S on Tro-induced PPARγ expression: signaling inhibitor. How it is done:
as §1
(§4) Total RNA was extracted with the RNA isolation kit from Stratagene (La Jolla, Calif., USA) according to the manufacturer's instructions. RNA was DNase-treated using DNA-free kit from Ambion (Austin, Tex., USA). Three micrograms of RNA was reverse-transcribed using reverse transcriptase from Stratagene to make single-stranded cDNA. The cDNA was mixed with Qi SYBR Green Supermix (Bio-Rad) for quantitative RT-PCR assay using a Bio-Rad I-cycler IQ quantitative thermocycler. All PCR samples were prepared in triplicate wells of a 96-well plate. After 40 cycles of PCR, melt curves were examined to ensure primer specificity. Fold changes in gene expression were calculated using the ΔΔCt method. […] Primers used are as follows: PPARγ2 (5′-[…]-3′ and 5′-[…]-3′), C/EBPα (5′-[…]-3′ and 5′-[…]-3′), ap2 (5′-[…]-3′ and 5′-[…]-3′), LPL (5′-[…]-3′ and 5′-[…]-[…]), GATA2 (5′-[…]-3′ and 5′-[…]-3′), GATA3 (5′-[…]-3′ and 5′-[…]-3′), GILZ (5′-[…]-3′ and 5′-[…]-3′), and pref-1 (5′-[…]-3′ and 5′-[…]-3′).
as §2, §3
After 48 hours of treatment, RNA was extracted from cells and analyzed for PPARγ expression by Q-RT-PCR. Data from a representative experiment, normalized to GAPDH expression, are reported as the mean of triplicate determinations ±SD.
On the technique in general: Quantitative PCR measures a nucleic acid by following its amplification.

Assay [2] relates to M2-10B4 (M2) murine pluripotent bone MSC line. The settings on record: cited from earlier work.
The test system of a further assay is aP2. Description: aP2 mRNA expression in M2 cells by quantitative real-time PCR. Type of assay: cell-based, mouse. The note with it: cyclopamine, data not shown. How it is done:
. M2 cells at confluence were treated with control vehicle, 10 μM Tro, or 5 μM 20S, alone or in combination for 24 hours (FIG. 4A), 48 hours (FIG. 4B), and 96 hours (FIG. 4C). aP2 mRNA expression was measured by quantitative real-time PCR. Fold changes in gene expression relative to the control were calculated using the ΔΔCt method and reported as the mean of triplicate determination ±SD (p<0.0001 for Tro or Tro+20S vs. control or 20S and p<0.01 for Tro vs. Tro+20S at 24 hours (FIG. 4A); p<0.0001 for Tro or Tro+20S vs. control or 20S and for Tro vs. Tro+20S at 48 hours (FIG. 4B); p<0.0001 for Tro vs. control, 20S, or Tro+20S and p<0.001 for Tro+20S vs. control or 20S at 96 hours (FIG. 4C)).

In another assay the test system is LPL. The note with it: cyclopamine, data not shown.
Excerpt: as §4

These results are taken from patent US8022052B2, “Inhibition of PPAR gamma expression by specific osteogenic oxysterols” (The Regents of the University of California, priority 2006, dated 2011).

Entries after “also recorded” stand apart in the source; their conditions may differ. Where two headings read alike, the source gives them in different places.

Take `C[C@H](O)[C@@H](C)C1CCC2C3CC=C4C[C@@H](O)CC[C@]4(C)C3CC[C@@]21C` (stereo partly shown) [Oxy4]: in the assay on M2 cells, the “incorporation of 45Ca in combination with 20(S)-hydroxycholesterol over 20(S)-hydroxycholesterol alone” value is “enhance”.

Consider `Cc1cccc(C[C@](C)(O)C2CCC3C4CC=C5C[C@@H](O)CC[C@]5(C)C4CC[C@@]32C)c1` (stereo partly shown) [Oxy11], for which, in assay [1] (10 μM Tro, 10 days), the “inhibition of Tro-induced adipocyte formation” value is given as “inhibitory effect”.

Turning to `CC(C)CCCC[C@](C)(O)C1CCC2C3CC=C4C[C@@H](O)CC[C@]4(C)C3CC[C@@]21C` (stereo partly drawn) [Oxy12, (3S,8S,9S,10R,13S,14S,17S)-2,3,4,7,8,9,10,11,12,13,14,15,16,17-tetradecahydro-17-((S)-2-hydroxy-7-methyloctan-2-yl)-10,13-dimethyl-1H-cyclopenta[α]phenanthren-3-ol], the “inhibition of Tro-induced adipocyte formation” value in assay [1] (10 μM Tro, 10 days) was “inhibitory effect”.

For `C=C(C)CCC[C@](C)(O)C1CCC2C3CC=C4C[C@@H](O)CC[C@]4(C)C3CC[C@@]21C` (stereo partly shown) [Oxy13], the “inhibition of Tro-induced adipocyte formation” value in assay [1] (10 μM Tro, 10 days) is on record as “inhibitory effect”. Also, in the assay with PPARγ (M2 cells, 10 μM Tro, oxysterol 5 μM, 24, 48, 96 h (20S), 48 h (Oxy13)), the “inhibition of Tro-induced PPARγ mRNA expression” value was “inhibits”.

As to `CC(C)=CCC[C@](C)(O)C1CCC2C3CC=C4C[C@@H](O)CC[C@]4(C)C3CC[C@@]21C` (stereo partly shown) [Oxy14], in assay [1] (10 μM Tro, 10 days), the “inhibition of Tro-induced adipocyte formation” value is “inhibitory effect”.

Take `CC(C)CC[C@@H](O)[C@](C)(O)C1CCC2C3CC=C4C[C@@H](O)CC[C@]4(C)C3CC[C@@]21C` (stereo partly shown) [Oxy16]: the “inhibition of Tro-induced adipocyte formation” value in assay [1] (10 μM Tro, 10 days) is “inhibitory effect”.

As to `CC[C@H](O)[C@@H](C)C1CCC2C3CC=C4C[C@@H](O)CC[C@]4(C)C3CC[C@@]21C` (stereo partly shown) [Oxy 3], the “incorporation of 45Ca in combination with 20(S)-hydroxycholesterol over 20(S)-hydroxycholesterol alone” value with M2 cells is “enhance”.

For the molecule `CC(C)CC[C@@H](O)[C@@H](C)[C@H]1CC[C@H]2[C@@H]3CC=C4C[C@@H](O)CC[C@]4(C)[C@H]3CC[C@]12C` [Oxy 22R, 22(R)-hydroxycholesterol], in assay [2], the “adipogenic differentiation of M2 cells (previously reported)” value is “inhibit”.

Turning to `CC(C)CC[C@H](O)[C@@H](C)[C@H]1CC[C@H]2[C@@H]3CC=C4C[C@@H](O)CC[C@]4(C)[C@H]3CC[C@]12C` [Oxy 22S, 22(S)-hydroxycholesterol], in assay [2], the “adipogenic differentiation of M2 cells (previously reported)” value is reported as “inhibit”.

Turning to `COc1cccc(-c2cc(=O)c3ccccc3o2)c1N` [PD98059], the “reversal of the inhibitory effects of 20S on Tro-induced adipocyte formation” value in assay [1] (10-day M2 cultures, Cyclopamine 4 μM, Dkk-1 1 μg/mL, PD98059 20 μM) is given as 50%. In addition, the “reversal of the inhibitory effect of 20S on Tro-induced PPARγ expression” value with PPARγ (M2 cells) is listed as 45%.

As for `CC1=C2C[C@H]3[C@@H](CC=C4C[C@@H](O)CC[C@@]43C)[C@@H]2CC[C@]12O[C@@H]1C[C@H](C)CN[C@H]1[C@H]2C` [cyclopamine], in assay [1], the “reversal of the inhibitory effects of 20S on Tro-induced adipocyte formation” value is given as 70% and the “reversal of the inhibitory effects of Shh on Tro-induced adipocyte formation” value was determined as 100%. The “reversal of the anti-adipogenic effects of 20S (in words)” value in assay [1] (4 μM cyclopamine 2-h pretreatment, 10 μM Tro, 5 μM 20S, 10 days) is listed as “reversed; also recorded: blocks; also recorded: did not completely reverse”. The “reversal of the anti-adipogenic effects of Shh (in words)” value in assay [1] (cyclopamine 2-h pretreatment, 10 μM Tro, 200 ng/mL Shh, 10 days) is “completely reversed; also recorded: blocks”. The “additional effect on adipocyte formation of increasing the dose of cyclopamine” value in assay [1] (cyclopamine from 4 to 8 μM, Tro+20S, data not shown) is reported as “did not have any additional effect”. Besides, in the assay with PPARγ, the “reversal of the inhibitory effect of 20S on Tro-induced PPARγ mRNA expression (in words)” value is reported as “fully reversed; also recorded: completely abolished; also recorded: blocks; also recorded: completely blocked” and the “reversal of the inhibitory effect of Shh on Tro-induced PPARγ mRNA expression (in words)” value is recorded as “fully reversed; also recorded: completely abolished; also recorded: blocks; also recorded: completely reversed; also recorded: completely blocked”. Further, in the assay on aP2, the “reversal of the inhibitory effects of 20S on aP2 expression” value is recorded as “reversed”. The “reversal of the inhibitory effects of 20S on LPL expression” value in the assay on LPL was “reversed”.

B1: Dkk-1: canonical Wnt signaling inhibitor (protein, UniProt O94907 32-266, looked up)
Dickkopf-related protein 1: TLNSVLNSNAIKNLPPPLGGAAGHPGSAVSAAPGILYPGGNKYQTIDNYQPYPCAEDEECGTDEYCASPTRGGDAGVQICLACRKRRKRCMRHAMCCPGNYCKNGICVSSDQNHFRGEIEETITESFGNDHSTLDGYSRRTTLSSKMYHTKGQEGSVCLRSSDCASGLCCARHFWSKICKPVLKEGQVCTKHRRKGSHGLEIFQRCYCGEGLSCRIQKDHHQASNSSRLHTCQRH
Take B1: the “reversal of the inhibitory effect of 20S on Tro-induced PPARγ expression” value with PPARγ (M2 cells) is listed as 10%.
